Tested on: hemoglobin
Assay: Multiple dose study in cancer subjects receiving platinum-based chemotherapy: hemoglobin
Type: in vivo, human
Conditions: Day 42
From the text: A total of 7 subjects were excluded from the preliminary statistical analysis of Day 42 platelet count data and 9 subjects were excluded from the preliminary statistical analysis of Day 42 hemoglobin data due to either incorrect randomization, platelet transfusion, not administered the 2nd dose of study medication, or lost to follow-up.

Substance: Methoxypolyethyleneglycol20000-propionyl-L-Isoleucyl-L-Glutamyl-Glycyl-L-Prolyl-L-Threonyl-L-Leucyl-L-Arginyl-L-Glutaminyl-L-2-Naphthylalanyl-L-Leucyl-L-Alanyl-L-Alanyl-L-Arginyl-Sarcosyl-Ne-(methoxypolyethyleneglycol20000-propionyl-L-Isoleucyl-L-Glutamyl-Glycyl-L-Prolyl-L-Threonyl-L-Leucyl-L-Arginyl-L-Glutaminyl-L-2-Naphthylalanyl-L-Leucyl-L-Alanyl-L-Alanyl-L-Arginyl-Sarcosyl-)-Lysinamide [TPO mimetic peptide compound]
- Change From Baseline in Hemoglobin, LS Mean (SE) (1.5 μg/kg): −1.63 (0.50)
- Change From Baseline in Hemoglobin, Diff of LS Mean (SE) vs Placebo (2.25 μg/kg): 0.57 (0.57)
- Change From Baseline in Hemoglobin, LS Mean (SE) (2.25 μg/kg): −1.60 (0.42)

Source: patent US20090311344A1, “Dosing Regimen” (priority 2008, published 2009)
